From US9133218B2, “Pesticidally active pyridyl- and pyrimidyl-substituted thiazole derivatives” (Syngenta Participations AG, priority 2012, dated 2015)
Like-named read-outs stand apart in the source and are kept apart here.

Experiments:
Format in all cases: in vivo
[1] = test system: Myzus persicae (Green Peach Aphid); experiment: Activity against Myzus persicae (green peach aphid), sunflower leaf disc spray test; conditions: foliar, 144 h, read-out: activity (mortality) against Myzus persicae
Text: Activity Against Myzus persicae (Green Peach Aphid)

[2] = test system: Bemisia tabaci (Cotton White Fly); experiment: Activity against Bemisia tabaci (cotton white fly), cotton leaf disc spray test; conditions: foliar, 144 h, read-out: activity (mortality and special effects) against Bemisia tabaci
Experimental: Activity Against Bemisia tabaci (Cotton White Fly)
(§1) Cotton leaf discs were placed on agar in a 24-well microtiter plate and sprayed with test solutions. After drying, the leaf discs were infested with 12 to 18 adults. After an incubation period of 6 days after infestation, samples were checked for mortality and special effects (e.g. phytotoxicity).

[3] = test system: Aedes aegypti (Yellow Fever Mosquito); experiment: whole plant or invertebrate; conditions: 200 ppm in ethanol, adult females, after 48 h and/or 24 h, read-out: control of Aedes aegypti (mortality)
Experimental: Aedes aegypti (Yellow Fever Mosquito)
(§2) Test solutions, at an application rate of 200 ppm in ethanol, were applied to 12 well tissue culture plates. Once the deposits were dry, five, two to five day old adult female Aedes aegypti were added to each well, and sustained with a 10% sucrose solution in a cotton wool plug. Mortality was assessed at 24 and 48 hours after introduction. The following compounds gave at least 80% control of Aedes aegypti after 48 h and/or 24 h: No. 1.026, 1.027, 1.030 and 1.025.

[4] = test system: Heliothis virescens (Tobacco Budworm); experiment: Activity against Heliothis virescens (tobacco budworm), eggs on artificial diet; conditions: eggs 0-24 h old, 4 days incubation, read-out: activity (egg mortality, larval mortality, growth regulation) against Heliothis virescens
Experimental: Activity Against Heliothis virescens (Tobacco Budworm)
Eggs (0-24 h old) are placed in 24-well microtiter plate on artificial diet and treated with test solutions by pipetting. After an incubation period of 4 days, samples are checked for egg mortality, larval mortality, and growth regulation.

[5] = test system: Frankliniellaoccidentalis (Western Flower Thrips); experiment: Activity against Frankliniella occidentalis (western flower thrips), sunflower leaf disc spray test; conditions: foliar, 168 h, mixed-age population, 7 days after treatment, read-out: activity (mortality and special effects) against Frankliniella occidentalis
Experimental: Activity Against Frankliniellaoccidentalis (Western Flower Thrips)
as §1, with “Sunflower” for “Cotton”, “are” for “were”, “a Frankliniella population of mixed ages.” for “12 to 18 adults.”, “7” for “6”, “treatment,” for “infestation,”

[6] = test system: Anopheles stephensi (Indian Malaria Mosquito); experiment: Anopheles stephensi (Indian malaria mosquito) contact test on treated plates; conditions: 200 ppm in ethanol, adult females, after 48 h and/or 24 h, read-out: control of Anopheles stephensi (mortality)
Experimental: Anopheles stephensi (Indian Malaria Mosquito)
as §2, with “Anopheles stephensi” for “Aedes aegypti”, “1.026” for “1.026, 1.027, 1.030”, “1.030.” for “1.025.”

[7] = test system: Tetranychusurticae (Two-Spotted Spider Mite); experiment: whole plant or invertebrate; conditions: Tetranychus urticae, foliar, 192 h, read-out: activity (egg, larval and adult mortality) against Tetranychus urticae
Text: Activity Against Tetranychusurticae (Two-Spotted Spider Mite)
Bean leaf discs on agar in 24-well microtiter plates are sprayed with test solutions. After drying, the leaf discs are infested with mite populations of mixed ages. 8 days later, discs are checked for egg mortality, larval mortality, and adult mortality.

[8] = test system: Spodoptera littoralis (Egyptian Cotton Leaf Worm); experiment: Activity against Spodoptera littoralis (Egyptian cotton leaf worm), systemic lettuce test; conditions: 120 h, systemic via lettuce roots, 5 days after infestation, read-out: activity (mortality, repellent effect, feeding behavior, growth regulation) against Spodoptera littoralis
Text: Activity Against Spodoptera littoralis (Egyptian Cotton Leaf Worm)
Test compounds were applied by pipette into 24 well plates and mixed with agar. Lettuce seeds were placed on the agar and the multi well plate is closed by another plate which contains also agar. After 7 days the roots have absorbed the compound and the lettuce has grown into the lid plate. The lettuce leafs were now cut off into the lid plate. Spodoptera eggs were pipetted through a plastic stencil on a humid gel blotting paper and the plate closed with it. The samples are checked for mortality, repellent effect, feeding behavior, and growth regulation 5 days after infestation.

[9] = 200 ppm, mixed-age aphid population, 6 days incubation
[10] = 200 ppm, adults, 6 days after infestation

SMILES | mortality at 200 ppm [1, 9] | mortality at 200 ppm [2, 10] | also measured
Cc1nc(-c2cccnc2)sc1-c1ccc2c(n1)/C(=N/O)CCC2 (single isomer, unassigned) [Compound 1.025, 2-[4-methyl-2-(3-pyridyl)thiazol-5-yl]-6,7-dihydro-5H-quinolin-8-one oxime] | > 80% | > 80% | mortality at 200 ppm [3]: ≥ 80%
CO/N=C1\CCCc2ccc(-c3cnc(-c4cccnc4)s3)nc21 [Compound 1.002] | > 80% | > 80% | mortality at 200 ppm [4]: > 80%; mortality at 200 ppm [5]: > 80%
CCO/N=C1\CCCc2ccc(-c3cnc(-c4cccnc4)s3)nc21 [Compound 1.003] | > 80% | > 80% | –
CO/N=C1\CCCc2ccc(-c3sc(-c4cccnc4)nc3C)nc21 [Compound 1.026] | > 80% | > 80% | mortality at 200 ppm [3]: ≥ 80%; mortality at 200 ppm [6]: ≥ 80%
CCO/N=C1\CCCc2ccc(-c3sc(-c4cccnc4)nc3C)nc21 [Compound 1.027] | > 80% | > 80% | mortality at 200 ppm [3]: ≥ 80%
CCCO/N=C1\CCCc2ccc(-c3sc(-c4cccnc4)nc3C)nc21 [Compound 1.028] | > 80% | > 80% | mortality at 200 ppm [7]: > 80%
Cc1nc(-c2cccnc2)sc1-c1ccc2c(n1)/C(=N/OC(C)C)CCC2 [Compound 1.029] | > 80% | > 80% | –
C=CCO/N=C1\CCCc2ccc(-c3sc(-c4cccnc4)nc3C)nc21 [Compound 1.030] | > 80% | > 80% | mortality at 200 ppm [3]: ≥ 80%; mortality at 200 ppm [6]: ≥ 80%
CO/N=C1\CCOc2ccc(-c3sc(-c4cccnc4)nc3C)nc21 [Compound 1.032, N-methoxy-6-[4-methyl-2-(3-pyridyl)thiazol-5-yl]-2,3-dihydropyrano[3,2-b]pyridin-4-imine] | > 80% | > 80% | –
CCO/N=C1\CCOc2ccc(-c3sc(-c4cccnc4)nc3C)nc21 [Compound 1.033] | > 80% | > 80% | –
Cc1nc(-c2cccnc2)sc1-c1ccc2c(n1)/C(=N/OC(C)C)CCO2 [Compound 1.035] | > 80% | > 80% | –
C=CCO/N=C1\CCOc2ccc(-c3sc(-c4cccnc4)nc3C)nc21 [Compound 1.036] | > 80% | > 80% | –
Cc1nc(-c2cccnc2)sc1-c1ccc2c(n1)/C(=N/OCCCc1ccccc1)CCC2 [Compound 1.049] | > 80% | > 80% | –
Cc1nc(-c2cccnc2)sc1-c1ccc2c(n1)/C(=N/OCC(F)F)CCC2 [Compound 1.050] | > 80% | – | mortality at 12.5 ppm [8]: > 80%
Cc1nc(-c2cccnc2)sc1-c1ccc2c(n1)/C(=N/OCCCC1OCCO1)CCC2 [Compound 1.051] | > 80% | – | –
Cc1nc(-c2cccnc2)sc1-c1ccc2c(n1)/C(=N/OCCc1ccc(F)cc1)CCC2 [Compound 1.053] | > 80% | – | mortality at 12.5 ppm [8]: > 80%
Cc1nc(-c2cccnc2)sc1-c1ccc2c(n1)/C(=N/OCCC1CCCN1C)CCC2 (stereo not drawn) [Compound 1.054] | > 80% | – | –
Cc1nc(-c2cccnc2)sc1-c1ccc2c(n1)/C(=N/OCc1ccc(Cl)cc1)CCC2 [Compound 1.062] | > 80% | – | –
Cc1nc(-c2cccnc2)sc1-c1ccc2c(n1)/C(=N/OCC#Cc1ccccc1)CCC2 [Compound 1.063] | > 80% | – | mortality at 200 ppm [7]: > 80%

SMILES | mortality at 200 ppm [1, 9] | mortality at 200 ppm [2, 10] | also measured
Cc1nc(-c2cccnc2)sc1-c1ccc2c(n1)/C(=N/OCC1CCCCC1)CCC2 [Compound 1.064] | > 80% | – | –
Cc1nc(-c2cccnc2)sc1-c1ccc2c(n1)/C(=N/OCCSc1ccc(F)cc1)CCC2 [Compound 1.065] | – | – | mortality at 200 ppm [4]: > 80%
Cc1nc(-c2cccnc2)sc1-c1ccc2c(n1)/C(=N/OCC1OCCO1)CCC2 [Compound 1.066] | > 80% | – | –
Cc1nc(-c2cccnc2)sc1-c1ccc2c(n1)/C(=N/OCc1cc(C(F)(F)F)cc(C(F)(F)F)c1)CCC2 [Compound 1.067] | – | – | mortality at 12.5 ppm [8]: > 80%
Cc1nc(-c2cccnc2)sc1-c1ccc2c(n1)/C(=N/OCc1ccccc1)CCC2 [Compound 1.068] | > 80% | – | –
CO/N=C1\CCSc2sc(-c3sc(-c4cccnc4)nc3C)nc21 [Compound 3.050, N-methoxy-2-[4-methyl-2-(3-pyridyl)thiazol-5-yl]-5,6-dihydrothiopyrano[3,2-d]thiazol-7-imine] | > 80% | > 80% | –
CCO/N=C1\CCSc2sc(-c3sc(-c4cccnc4)nc3C)nc21 [Compound 3.051] | > 80% | > 80% | –
C=CCO/N=C1\CCSc2sc(-c3sc(-c4cccnc4)nc3C)nc21 [Compound 3.053] | > 80% | > 80% | –
CN/N=C1\CCCc2ccc(-c3sc(-c4cccnc4)nc3C)nc21 [Compound 6.009] | > 80% | – | –
COC(=O)N/N=C1\CCCc2ccc(-c3sc(-c4cccnc4)nc3C)nc21 [Compound 6.011, Methyl N-[(E)-[2-[4-methyl-2-(3-pyridyl)thiazol-5-yl]-6,7-dihydro-5H-quinolin-8-ylidene]amino]carbamate] | > 80% | > 80% | –
CN/N=C1\CCOc2ccc(-c3sc(-c4cccnc4)nc3C)nc21 [Compound 6.016] | > 80% | – | –
COC(=O)N/N=C1\CCOc2ccc(-c3sc(-c4cccnc4)nc3C)nc21 [Compound 6.018] | – | > 80% | –
COC(=O)N(C)/N=C1\CCOc2ccc(-c3sc(-c4cccnc4)nc3C)nc21 [Compound 6.019] | – | – | mortality at 200 ppm [1]: > 80%; mortality at 200 ppm [2]: > 80%
Cc1nc(-c2cccnc2)sc1-c1ccc2c(n1)/C(=N/N(C)S(C)(=O)=O)CCO2 [Compound 6.021] | – | > 80% | –
Cc1nc(-c2cccnc2)sc1-c1ccc2c(n1)/C(=N/Nc1ccc(F)cc1)CCC2 [Compound 6.029] | > 80% | – | –
Cc1nc(-c2cccnc2)sc1-c1ccc2c(n1)/C(=N/NCC(F)(F)F)CCC2 [Compound 6.032] | > 80% | – | –
Cc1nc(-c2cccnc2)sc1-c1ccc2c(n1)/C(=N\NCC(F)(F)F)CCC2 [Compound 6.033] | > 80% | – | mortality at 200 ppm [4]: > 80%
COc1ccc(N/N=C2\CCCc3ccc(-c4sc(-c5cccnc5)nc4C)nc32)cc1 [Compound 6.034] | > 80% | – | –
Cc1nc(-c2cccnc2)sc1-c1ccc2c(n1)/C(=N/NC(C)(C)C)CCC2 [Compound 6.035] | > 80% | – | –
